Assay results: ChEMBL document CHEMBL1144273, “Synthesis and SAR studies of 3-phenoxypropyl piperidine analogues as ORL1 (NOP) receptor agonists” (Bioorg Med Chem Lett, 2005)

Test system: Mus musculus
Assay: In vivo effective dose against mouse formalin paw after intravenous administration of the compound
Assay type: functional

Q: `COc1ccc(C)c(OC(CCN2CCC(n3c(=O)[nH]c4ccccc43)CC2)C(C)C)c1` (stereo unspecified) [ORGANON] was tested. Which ED50 did it give?
A: Its ED50 is 1.07 µmol/kg.
